Source: patent US20040002493A1, “Benzoic acid derivatives and pharmaceutical agents comprising the same as active ingredient” (priority 2000, published 2004)
pKi: −log10 of the molar value.

Experiments:
Experiment in all cases: Binding assay using cell expressing the prostanoid receptor subtypes, [3H]-PGE2 competition on CHO membrane fraction
EP1 receptor = molecular target: T1, EP1 receptor (Mus musculus, UniProt P35375); details: mouse EP1, [3H]-PGE2 2.5 nM, pH 6.0
T1 construct: expressed in transfected cells; host or cells: CHO cells
T1 sequence (P35375 1-405): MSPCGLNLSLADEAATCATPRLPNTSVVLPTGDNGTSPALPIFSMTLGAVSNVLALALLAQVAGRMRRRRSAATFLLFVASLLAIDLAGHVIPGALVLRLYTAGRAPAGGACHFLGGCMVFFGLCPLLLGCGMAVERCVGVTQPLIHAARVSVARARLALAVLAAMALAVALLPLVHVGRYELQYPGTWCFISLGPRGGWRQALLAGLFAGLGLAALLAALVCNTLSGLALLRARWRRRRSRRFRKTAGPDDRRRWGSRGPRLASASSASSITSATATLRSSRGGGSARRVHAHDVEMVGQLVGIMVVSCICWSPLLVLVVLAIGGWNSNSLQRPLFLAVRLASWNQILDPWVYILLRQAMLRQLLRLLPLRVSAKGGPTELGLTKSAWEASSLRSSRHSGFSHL
Experimental: (§1) (i) Binding Assay Using Cell Expressing the Prostanoid Receptor Subtypes
(§2) The preparation of membrane fraction was carried out according to the method of Sugimoto et al [J. Biol. Chem. 267, 6463-6466 (1992)], using CHO cell expressing prostanoid receptor subtypes (mouse EP1, EP2, EP3α, and EP4).
(§3) The standard assay mixture containing membrane fraction (50 μL), [^3H]-PGE2 in a final volume of 150 μL was incubated for 1 hour at room temperature. The reaction was terminated by addition of 3 mL of ice-cold buffer. The mixture was rapidly filtered through a glass filter (GF/B) under reduced pressure. The radioactivities associated with the filters were measured by liquid scintillation counter.
(§4) Kd and Bmax values were determined from Scatchard plots [Ann. N.Y. Acad. Sci. 51, 660(1949)]. Non-specific binding was determined as the amount bound in the presence of an excess (2.5 μM) of unlabeled PGE2. In the experiment for competition of specific [^3H]-PGE2 binding assay, [^3H]-PGE2 was added at a concentration of 2.5 nM and a test compound of the present invention was added at various concentrations. The following buffer was used in all reactions.
(§5) Buffer: 10 mM potassium phosphate (pH 6.0), 1 mM EDTA, 10 mM MgCl2, 0.1 M NaCl.
(§6) The inhibition constant (Ki) (μM) of each compound was calculated by the following equation.

EP4 receptor = molecular target: T2, EP4 receptor (Mus musculus, UniProt P32240); details: mouse EP4, [3H]-PGE2 2.5 nM, pH 6.0
T2 construct: expressed in transfected cells; host or cells: CHO cells
Experimental: as §1, §2, §3, §4, §5, §6

EP3 receptor = molecular target: T3, EP3 receptor (Mus musculus, UniProt P30557); details: mouse EP3α, [3H]-PGE2 2.5 nM, pH 6.0
T3 construct: expressed in transfected cells; host or cells: CHO cells
T3 sequence (P30557 1-365): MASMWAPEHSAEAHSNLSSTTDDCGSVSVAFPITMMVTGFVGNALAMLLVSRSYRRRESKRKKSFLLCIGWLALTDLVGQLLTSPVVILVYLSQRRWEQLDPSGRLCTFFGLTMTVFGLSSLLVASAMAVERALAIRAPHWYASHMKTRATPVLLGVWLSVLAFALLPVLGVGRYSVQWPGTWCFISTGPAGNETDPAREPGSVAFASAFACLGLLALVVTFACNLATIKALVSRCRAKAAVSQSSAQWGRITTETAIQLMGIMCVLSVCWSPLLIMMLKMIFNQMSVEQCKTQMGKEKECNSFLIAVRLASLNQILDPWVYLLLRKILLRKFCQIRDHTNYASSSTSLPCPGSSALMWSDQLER
Experimental: as §1, §2, §3, §4, §5, §6

EP2 receptor = molecular target: T4, EP2 receptor (Mus musculus, UniProt Q62053); details: mouse EP2, [3H]-PGE2 2.5 nM, pH 6.0
T4 construct: expressed in transfected cells; host or cells: CHO cells
Experimental: as §1, §2, §3, §4, §5, §6

T2 sequence (P32240 whole entry): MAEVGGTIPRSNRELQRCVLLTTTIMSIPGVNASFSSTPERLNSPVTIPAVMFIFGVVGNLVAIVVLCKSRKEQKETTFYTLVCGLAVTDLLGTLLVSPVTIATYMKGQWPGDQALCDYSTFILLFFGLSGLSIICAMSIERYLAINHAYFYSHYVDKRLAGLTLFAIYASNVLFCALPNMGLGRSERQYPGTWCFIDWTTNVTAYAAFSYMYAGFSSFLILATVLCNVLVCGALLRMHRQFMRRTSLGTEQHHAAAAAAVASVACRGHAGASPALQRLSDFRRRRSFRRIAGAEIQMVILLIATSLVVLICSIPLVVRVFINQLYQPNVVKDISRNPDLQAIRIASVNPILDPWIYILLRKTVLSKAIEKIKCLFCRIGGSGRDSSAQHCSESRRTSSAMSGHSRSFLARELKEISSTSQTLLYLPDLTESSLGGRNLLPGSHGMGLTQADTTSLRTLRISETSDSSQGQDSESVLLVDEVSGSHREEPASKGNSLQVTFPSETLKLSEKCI
T4 sequence (Q62053 whole entry): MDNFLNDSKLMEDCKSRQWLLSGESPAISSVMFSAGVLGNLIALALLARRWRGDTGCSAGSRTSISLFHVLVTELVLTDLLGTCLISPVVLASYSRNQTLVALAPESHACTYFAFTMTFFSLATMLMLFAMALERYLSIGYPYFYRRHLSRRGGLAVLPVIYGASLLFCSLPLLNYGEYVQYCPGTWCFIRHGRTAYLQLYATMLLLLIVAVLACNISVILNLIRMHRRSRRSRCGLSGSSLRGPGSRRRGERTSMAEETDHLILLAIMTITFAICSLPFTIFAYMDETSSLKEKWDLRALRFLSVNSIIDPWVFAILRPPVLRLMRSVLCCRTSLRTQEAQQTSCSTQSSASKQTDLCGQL

pKi (EP1 receptor): 5.82 | pKi (EP4 receptor): 8.00 | pKi (EP3 receptor): 7.22 | pKi (EP2 receptor): 5.10
Structure (SMILES): CC(C(=O)Nc1ccccc1Cc1ccccc1C(=O)O)c1ccc(OCc2ccccc2)cc1 (stereo not shown) [2(1), 2-[2-[2-(4-Benzyloxyphenyl)propanoylamino]phenyl]methylbenzoic Acid]
